From US20220388979A1, “QUINOLINE DERIVATIVES AS PROTEIN KINASE INHIBITORS” (B.C.I. PHARMA, priority 2019, published 2022)
Read-outs that look alike come from different tables or passages of the source.

What was measured:
M-NFS-60 cells = test: Cell proliferation in M-NFS-60 leukemia cell line (WST-1); type: cell-based; settings: for IC50: cell proliferation, 72 h, WST-1, read-out: M-NFS-60 IC 50
Procedure: M-NFS-60: Exponential growing M-NFS-60 cells (ATCC, CRL-1838) were seeded at […]per 200 μl of complete medium with beta-mercaptoethanol and M-CSF (62 ng/mL) or IL34 (500 ng/mL). Twenty μL of test compound dilution were added to each well and the plates were incubated for 72 h at 37° C., 5% CO2. Untreated cells and positive control (0.5% triton X-100, for the last 15 min) served as reference for maximum and minimum viability. At the end of incubation 100 μl of supernatant were removed and replaced by 10 μl of WST-1 solution (Cell Proliferation Reagent WST-1, Roche Applied Science). After 3 h incubation at 37° C., 5% CO2, optical densities were measured at 450 nm and 620 nm for the background on microplate reader (Envision 2105, Perkinelmer).
(§1) IC50 were measured and experiments were performed at least in duplicate.
(§2) Cell-based assays of compounds CC395-CC397, depicted above, against M-NFS-60 and HEK-CSF1R have been performed following the procedures described in example 29 and 30 and compared with their quinoline analogues 32, 44 and 108.

CSF1R [1] = molecular target: T1, CSF1R (Homo sapiens, UniProt P07333); test: HEK-CSF1R-STAT5-Luc reporter assay, M-CSF stimulated; type: cell-based; design: host or cells: HEK293T (ATCC CRL-3216); settings: for IC50: 600 ng/ml M-CSF, 24 h, luciferase, read-out: HEK-CSF1R-STAT5 IC 50
Procedure: HEK-CSF1R-STAT5-Luc: Exponential growing HEK293T cells (ATCC® CRL-3216™), ectopically expressing human CSF1R receptor (Origene) and five copies of a STAT5 response element (STAT5 RE, promega) that drives transcription of the luciferase reporter were seeded at 5·10^3 per 20 μl of complete DMEM medium. The next day, 2.25 μL of test compound dilution were added to each well and stimulated with 600 ng/ml of M-CSF. The plates were incubated for 24 h at 37° C., 5% CO2. Unstimulated and stimulated cells served as reference for […]. At the end of incubation 25 μl of Steady-Glo® Luciferase Assay System (Promega) were added after 5 min of lysis, luminescence was measured on microplate reader (Envision 2105, Perkinelmer).
as §1, §2

male C57Bl6J mice = test: Streptozotocin-induced diabetic neuropathic pain model, Von Frey mechanical threshold (compound 32 study); type: in vivo; settings: pregabalin subcutaneous 0.5 mg/mL in phosphate buffer (100 μL/10 g)
Procedure: The experiment has been conducted in 8 weeks old male C57Bl6J mice (from Charles River). For this study, 6 mice per group have been used.
(§3) Diabetes has been induced by a single IP injection of 200 μg/mL streptozotocin solution (100 μL/10 g). Glycemia has been tested before, D+3 and D+7 post-injection. All injected mice presented blood glucose concentration […] at D+7, and then have been used for analgesic testing of the compounds.
(§4) Compound 32 has been orally administrated at 6 mg/mL in Capryol 90 solution (50 μL/10 g) and pregabalin has been subcutaneously injected at 0.5 mg/mL in phosphate buffer (100 μL/10 g) at D+14 and D+16. A time course measurement at +1 h, +2 h, +4 h and +6 h has been performed after compound administration.
(§5) Mechanical threshold response of mice has been measured with calibrated Von Frey filaments using the up/down method, blind for manipulator. Measurements have been performed before streptozotocin injection and 14 days after.
(§6) Statistical analysis was performed using SigmaPlot 12.5 software. Percentage of maximum possible effect is calculated as follow
(§7) % MPE=[(Test−Prest)/(cut-off−Prest)]*100
(§8) Where cut-off, Test and Pretest values correspond respectively to baseline measure, timepoint post-administration measure and measure before administration.

male C57B16J mice = test: Streptozotocin-induced diabetic neuropathic pain model, Von Frey mechanical threshold (compound 108 study); type: in vivo; settings: pregabalin subcutaneous 0.5 mg/mL in phosphate buffer (100 μL/10 g)
Procedure: The experiment has been conducted in 8 weeks old male C57B16J mice (from Charles River). For this study, 10 mice per group have been used.
as §3
as §4, with “Compound 108” for “Compound 32”, “at 2, 5 and 10” for “at 6”, “in 0.9% NaCl” for “in Capryol 90”, “and D+17.” for “and D+16.”
as §5, §6, §7, §8

CSF1R [2] = molecular target: T1, CSF1R; test: Z'-Lyte biochemical kinase assay (SelectScreen), CSF1R; settings: at 50 nM, in duplicate
Procedure: (§9) A biochemical assay was performed in order to measure the protein kinase inhibition. The kinase binding assays were performed against different kinases using the SelectScreen Biochemical Kinase Profiling Service® platform (Thermo Fisher Scientific). For all kinases, the Z′-Lyte® biochemical kinase assay technology was used. Inhibitions were measured at 50 nM in duplicate for each compound and are reported in percentage.

Kit = Kit (Homo sapiens, UniProt P10721); test: Z'-Lyte biochemical kinase assay (SelectScreen), Kit; settings: at 50 nM, in duplicate
Procedure: as §9

PDGFRB = PDGFRB (Homo sapiens, UniProt P09619); test: Z'-Lyte biochemical kinase assay (SelectScreen), PDGFRB; settings: at 50 nM, in duplicate
Procedure: as §9

FLT3 = molecular target: T2, FLT3 (Homo sapiens, UniProt P36888); test: Z'-Lyte biochemical kinase assay (SelectScreen), FLT3; settings: at 50 nM, in duplicate
T2 sequence (P36888 27-993): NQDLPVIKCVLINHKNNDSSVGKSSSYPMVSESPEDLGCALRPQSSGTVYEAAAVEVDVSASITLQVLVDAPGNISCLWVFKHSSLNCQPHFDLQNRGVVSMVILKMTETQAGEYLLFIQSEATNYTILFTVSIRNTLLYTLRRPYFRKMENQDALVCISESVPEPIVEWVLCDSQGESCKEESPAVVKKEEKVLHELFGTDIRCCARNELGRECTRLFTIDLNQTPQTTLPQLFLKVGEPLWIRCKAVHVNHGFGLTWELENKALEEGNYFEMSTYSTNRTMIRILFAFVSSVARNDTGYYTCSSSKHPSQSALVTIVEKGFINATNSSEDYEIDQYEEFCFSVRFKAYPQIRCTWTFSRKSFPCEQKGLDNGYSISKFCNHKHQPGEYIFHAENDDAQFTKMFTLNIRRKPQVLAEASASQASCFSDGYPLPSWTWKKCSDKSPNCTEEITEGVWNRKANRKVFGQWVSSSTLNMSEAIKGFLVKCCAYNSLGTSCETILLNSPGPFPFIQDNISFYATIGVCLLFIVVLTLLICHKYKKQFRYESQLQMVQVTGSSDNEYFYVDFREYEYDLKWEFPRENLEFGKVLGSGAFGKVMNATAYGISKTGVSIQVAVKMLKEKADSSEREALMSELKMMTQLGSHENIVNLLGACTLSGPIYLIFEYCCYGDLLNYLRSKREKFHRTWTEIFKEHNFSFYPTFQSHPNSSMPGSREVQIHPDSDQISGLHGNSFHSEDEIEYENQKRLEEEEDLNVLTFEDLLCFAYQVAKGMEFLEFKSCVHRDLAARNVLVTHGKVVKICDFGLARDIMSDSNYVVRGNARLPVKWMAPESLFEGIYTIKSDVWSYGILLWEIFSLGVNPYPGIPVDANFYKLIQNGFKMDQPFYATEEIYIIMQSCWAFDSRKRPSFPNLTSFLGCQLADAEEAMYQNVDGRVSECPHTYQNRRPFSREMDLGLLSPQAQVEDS
Procedure: as §9

PDGFRA = PDGFRA (Homo sapiens, UniProt P16234); test: Z'-Lyte biochemical kinase assay (SelectScreen), PDGFRA; settings: at 50 nM, in duplicate
Procedure: as §9

[3] = 32 vs CC395, 44 vs CC396, 108 vs CC397

Sequence of PDGFRB (P09619 33-1106): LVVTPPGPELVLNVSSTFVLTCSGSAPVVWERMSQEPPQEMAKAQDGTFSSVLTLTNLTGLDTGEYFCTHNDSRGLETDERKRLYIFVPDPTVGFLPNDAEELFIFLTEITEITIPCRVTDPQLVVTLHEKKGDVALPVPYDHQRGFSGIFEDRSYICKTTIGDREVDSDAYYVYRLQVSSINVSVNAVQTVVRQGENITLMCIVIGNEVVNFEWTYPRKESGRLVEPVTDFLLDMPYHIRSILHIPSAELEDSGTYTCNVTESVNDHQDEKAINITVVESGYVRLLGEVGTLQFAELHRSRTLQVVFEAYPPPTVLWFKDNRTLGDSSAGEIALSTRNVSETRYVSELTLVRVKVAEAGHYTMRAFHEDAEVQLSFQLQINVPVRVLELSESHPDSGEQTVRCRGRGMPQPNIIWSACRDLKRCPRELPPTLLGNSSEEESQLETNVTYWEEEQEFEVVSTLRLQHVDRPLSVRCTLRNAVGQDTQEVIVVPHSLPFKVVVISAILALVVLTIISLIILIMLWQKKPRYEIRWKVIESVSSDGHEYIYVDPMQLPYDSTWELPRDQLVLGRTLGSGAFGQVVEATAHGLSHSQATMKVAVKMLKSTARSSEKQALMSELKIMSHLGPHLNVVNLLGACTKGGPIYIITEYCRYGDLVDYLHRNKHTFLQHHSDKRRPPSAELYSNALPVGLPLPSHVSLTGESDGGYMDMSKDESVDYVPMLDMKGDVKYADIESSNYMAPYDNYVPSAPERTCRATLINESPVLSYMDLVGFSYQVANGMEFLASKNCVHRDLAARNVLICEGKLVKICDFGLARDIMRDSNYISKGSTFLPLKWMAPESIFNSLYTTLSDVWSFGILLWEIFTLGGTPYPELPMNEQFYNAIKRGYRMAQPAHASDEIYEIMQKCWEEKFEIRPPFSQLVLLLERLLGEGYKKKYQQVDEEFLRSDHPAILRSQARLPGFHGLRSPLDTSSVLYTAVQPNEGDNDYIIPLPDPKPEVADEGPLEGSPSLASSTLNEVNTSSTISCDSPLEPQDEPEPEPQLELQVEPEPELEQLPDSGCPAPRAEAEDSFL
Sequence of PDGFRA (P16234 24-1089): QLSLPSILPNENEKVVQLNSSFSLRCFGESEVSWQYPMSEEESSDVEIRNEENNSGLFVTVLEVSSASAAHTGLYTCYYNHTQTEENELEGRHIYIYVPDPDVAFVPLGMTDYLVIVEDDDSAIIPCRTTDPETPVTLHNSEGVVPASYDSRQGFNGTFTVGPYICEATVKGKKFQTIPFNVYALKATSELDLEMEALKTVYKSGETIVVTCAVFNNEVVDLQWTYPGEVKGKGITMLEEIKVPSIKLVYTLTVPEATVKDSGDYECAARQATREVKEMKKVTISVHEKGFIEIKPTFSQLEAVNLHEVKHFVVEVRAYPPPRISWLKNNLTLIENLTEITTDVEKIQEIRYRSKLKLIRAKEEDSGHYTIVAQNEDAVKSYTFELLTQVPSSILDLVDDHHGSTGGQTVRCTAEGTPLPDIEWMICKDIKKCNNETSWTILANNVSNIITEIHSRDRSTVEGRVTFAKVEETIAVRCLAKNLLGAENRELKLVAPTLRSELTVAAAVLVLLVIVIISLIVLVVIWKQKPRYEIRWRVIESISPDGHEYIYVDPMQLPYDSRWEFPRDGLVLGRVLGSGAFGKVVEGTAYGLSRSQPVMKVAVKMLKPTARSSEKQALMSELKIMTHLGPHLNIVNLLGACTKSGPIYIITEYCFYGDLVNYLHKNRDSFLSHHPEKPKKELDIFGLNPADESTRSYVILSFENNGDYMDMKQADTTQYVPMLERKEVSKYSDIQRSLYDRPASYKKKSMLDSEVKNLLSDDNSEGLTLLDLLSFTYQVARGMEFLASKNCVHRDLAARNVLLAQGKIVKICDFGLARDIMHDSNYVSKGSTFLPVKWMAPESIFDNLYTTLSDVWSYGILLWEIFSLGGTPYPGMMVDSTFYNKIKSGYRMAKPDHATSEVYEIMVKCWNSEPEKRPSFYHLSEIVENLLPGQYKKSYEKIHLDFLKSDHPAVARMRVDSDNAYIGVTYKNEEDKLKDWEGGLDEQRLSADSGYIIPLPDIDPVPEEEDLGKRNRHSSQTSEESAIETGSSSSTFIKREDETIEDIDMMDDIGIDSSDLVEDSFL
Sequence of Kit (P10721 26-976): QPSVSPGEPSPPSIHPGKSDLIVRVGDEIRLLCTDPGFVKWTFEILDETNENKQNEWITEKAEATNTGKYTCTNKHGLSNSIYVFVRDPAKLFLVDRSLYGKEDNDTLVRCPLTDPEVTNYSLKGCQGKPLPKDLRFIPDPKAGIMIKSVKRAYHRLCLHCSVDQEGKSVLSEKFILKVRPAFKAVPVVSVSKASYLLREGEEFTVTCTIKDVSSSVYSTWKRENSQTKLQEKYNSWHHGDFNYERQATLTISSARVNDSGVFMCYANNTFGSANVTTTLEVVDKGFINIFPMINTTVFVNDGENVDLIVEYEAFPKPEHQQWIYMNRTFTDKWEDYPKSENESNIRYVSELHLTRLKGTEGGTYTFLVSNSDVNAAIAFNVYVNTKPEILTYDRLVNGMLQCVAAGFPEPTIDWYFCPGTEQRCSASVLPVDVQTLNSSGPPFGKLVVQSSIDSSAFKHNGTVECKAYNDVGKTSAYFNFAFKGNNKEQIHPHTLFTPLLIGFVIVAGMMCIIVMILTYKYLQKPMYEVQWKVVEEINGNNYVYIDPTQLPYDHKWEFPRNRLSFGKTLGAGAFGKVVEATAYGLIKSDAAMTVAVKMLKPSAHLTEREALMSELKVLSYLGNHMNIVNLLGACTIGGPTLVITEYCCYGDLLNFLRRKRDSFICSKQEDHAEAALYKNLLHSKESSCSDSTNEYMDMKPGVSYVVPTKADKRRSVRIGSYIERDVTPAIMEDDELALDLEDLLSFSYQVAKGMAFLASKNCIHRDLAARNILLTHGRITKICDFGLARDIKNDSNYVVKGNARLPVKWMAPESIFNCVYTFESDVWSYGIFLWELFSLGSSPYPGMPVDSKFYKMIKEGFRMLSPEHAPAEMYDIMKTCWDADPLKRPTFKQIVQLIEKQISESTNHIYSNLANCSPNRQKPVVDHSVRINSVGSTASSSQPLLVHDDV
T1 sequence (P07333 20-972): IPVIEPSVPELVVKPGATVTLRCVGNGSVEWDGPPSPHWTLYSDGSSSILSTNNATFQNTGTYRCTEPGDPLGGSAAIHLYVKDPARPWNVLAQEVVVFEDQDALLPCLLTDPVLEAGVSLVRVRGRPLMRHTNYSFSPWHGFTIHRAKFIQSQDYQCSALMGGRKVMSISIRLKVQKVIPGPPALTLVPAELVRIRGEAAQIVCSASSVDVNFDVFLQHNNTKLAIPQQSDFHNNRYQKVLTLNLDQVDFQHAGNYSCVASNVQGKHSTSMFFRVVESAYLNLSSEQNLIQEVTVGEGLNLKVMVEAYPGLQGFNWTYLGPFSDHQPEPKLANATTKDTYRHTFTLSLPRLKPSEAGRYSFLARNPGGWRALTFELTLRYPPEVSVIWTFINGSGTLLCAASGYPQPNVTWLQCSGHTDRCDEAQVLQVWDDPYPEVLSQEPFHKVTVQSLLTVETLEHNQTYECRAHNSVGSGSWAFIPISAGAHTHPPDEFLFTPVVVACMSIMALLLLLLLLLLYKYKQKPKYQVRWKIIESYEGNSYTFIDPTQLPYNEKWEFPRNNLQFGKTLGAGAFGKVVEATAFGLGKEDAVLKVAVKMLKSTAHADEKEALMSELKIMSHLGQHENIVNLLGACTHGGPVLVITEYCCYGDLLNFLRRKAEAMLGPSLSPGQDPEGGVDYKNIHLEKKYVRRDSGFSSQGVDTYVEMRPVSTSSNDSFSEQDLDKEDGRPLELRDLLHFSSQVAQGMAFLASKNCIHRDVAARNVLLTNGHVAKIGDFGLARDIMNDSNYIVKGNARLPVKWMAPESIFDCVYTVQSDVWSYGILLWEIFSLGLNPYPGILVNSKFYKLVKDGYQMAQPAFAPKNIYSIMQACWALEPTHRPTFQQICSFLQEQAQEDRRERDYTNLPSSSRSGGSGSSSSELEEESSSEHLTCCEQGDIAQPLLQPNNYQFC

SMILES: COc1cc2nccc(Oc3cccc(CC(=O)NCc4ccncc4)c3)c2cc1OC [CC400, reference compound]
- IC50 (M-NFS-60 cells; Table 10): 4.21 µM
- IC50 (CSF1R [1]; Table 10): 2.27 µM

SMILES: Cc1c(Oc2ncnc3cc(Cl)ccc23)cccc1C(=O)NCc1ccncc1 [CC 397, 3-(7-chloroquinazolin-4-yl)oxy-2-methyl-N-(4-pyridylmethyl)benzamide, reference compound]
- IC50 (M-NFS-60 cells; Table 9): 1.26 µM
- IC50 (CSF1R [1]; Table 9): 4.15 µM

SMILES: Cc1c(Oc2ccnc3cc(Cl)ccc23)cccc1C(=O)NCc1ccncc1 [compound 108, 3-[(7-chloro-4-quinolyl)oxy]-2-methyl-N-(4-pyridylmethyl)benzamide]
- IC50 (M-NFS-60 cells; Table 9): 0.058 µM
- IC50 (CSF1R [1]; Table 9): 0.029 µM

SMILES: COc1ccc2c(Oc3cccc(C(=O)NCc4ccncc4F)c3C)ccnc2c1 [compound 44]
- fold decrease in IC50 against M-NFS-60 compared to quinazoline-based comparative compound (M-NFS-60 cells; [3]): 22 fold
- IC50 (M-NFS-60 cells; Table 9): 0.019 µM
- fold decrease in IC50 against HEK-CSF1R-STAT5 compared to quinazoline-based comparative compound (CSF1R [1]; [3]): 86 fold
- IC50 (CSF1R [1]; Table 9): 0.007 µM

SMILES: COc1ccc2c(Oc3cccc(C(=O)NCc4ccncc4F)c3C)ncnc2c1 [CC 396, N-[(3-fluoro-4-pyridyl)methyl]-3-(7-methoxyquinazolin-4-yl)oxy-2-methyl-benzamide, reference compound]
- IC50 (M-NFS-60 cells; Table 9): 0.415 µM
- IC50 (CSF1R [1]; Table 9): 0.6 µM

SMILES: CC(C)C[C@H](CN)CC(=O)O [Pregabalin, pregabalin]
- Analgesic effect expressed as % MPE (male C57Bl6J mice; +1 h): 80.7 ± 10.8 % MPE
- Analgesic effect expressed as % of baseline (male C57Bl6J mice; +1 h): 81.2 ± 7.9 % of baseline
- Analgesic effect expressed as % MPE (male C57Bl6J mice; +2 h): 84.6 ± 10.6 % MPE
- Analgesic effect expressed as % of baseline (male C57Bl6J mice; +2 h): 86.0 ± 9.1 % of baseline
- Analgesic effect expressed as % MPE (male C57Bl6J mice; +4 h): 33.9 ± 5.8 % MPE
- Analgesic effect expressed as % of baseline (male C57Bl6J mice; +4 h): 45.0 ± 5.3 % of baseline
- Analgesic effect expressed as % MPE (male C57Bl6J mice; +6 h): 5.9 ± 4.3 % MPE
- Analgesic effect expressed as % of baseline (male C57Bl6J mice; +6 h): 23.5 ± 2.1 % of baseline
- Analgesic effect expressed as % MPE (male C57B16J mice; +1 h): 76.6 ± 15.4 % MPE
- Analgesic effect expressed as % of baseline (male C57B16J mice; +1 h): 80.6 ± 12.4 % of baseline
- Analgesic effect expressed as % MPE (male C57B16J mice; +2 h): 79.5 ± 13.7 % MPE
- Analgesic effect expressed as % of baseline (male C57B16J mice; +2 h): 85.7 ± 10.7 % of baseline
- Analgesic effect expressed as % MPE (male C57B16J mice; +4 h): 31.0 ± 17.0 % MPE
- Analgesic effect expressed as % of baseline (male C57B16J mice; +4 h): 45.6 ± 13.0 % of baseline
- Analgesic effect expressed as % MPE (male C57B16J mice; +6 h): 10.9 ± 7.5 % MPE
- Analgesic effect expressed as % of baseline (male C57B16J mice; +6 h): 30.3 ± 4.8 % of baseline

SMILES: COc1ccc2c(Oc3cccc(C(=O)NCc4ccncc4)c3C)ccnc2c1 [compound 32, 3-[(7-methoxy-4-quinolyl)oxy]-2-methyl-N-(4-pyridylmethyl)benzamide]
- IC50 (M-NFS-60 cells; Table 9): 0.034 µM
- IC50 (CSF1R [1]; Table 9): 0.026 µM

SMILES: COc1cc2nccc(Oc3cccc(NC(=O)Cc4ccncc4)c3)c2cc1OC [CC399, reference compound]
- IC50 (M-NFS-60 cells; Table 10): 5.21 µM
- IC50 (CSF1R [1]; Table 10): 3.54 µM

SMILES: COc1cc2nccc(Oc3cccc(C(=O)NCc4ccncc4)c3)c2cc1OC [compound 398]
- IC50 (M-NFS-60 cells; Table 10): 0.198 µM
- fold decrease in IC50 against M-NFS-60 compared to CC399 (M-NFS-60 cells; vs CC399): 26 fold
- fold decrease in IC50 against M-NFS-60 compared to CC400 (M-NFS-60 cells; vs CC400): 21 fold
- fold decrease in IC50 against M-NFS-60 compared to CC401 (M-NFS-60 cells; vs CC401): 38 fold
- IC50 (CSF1R [1]; Table 10): 0.058 µM
- fold decrease in IC50 against HEK-CSF1R-STAT5 compared to CC399 (CSF1R [1]; vs CC399): 61 fold
- fold decrease in IC50 against HEK-CSF1R-STAT5 compared to CC400 (CSF1R [1]; vs CC400): 39 fold
- fold decrease in IC50 against HEK-CSF1R-STAT5 compared to CC401 (CSF1R [1]; vs CC401): 67 fold

SMILES: COc1ccc2c(Oc3cccc(C(=O)NCc4ccncc4)c3C)ncnc2c1 [CC 395, 3-(7-methoxyquinazolin-4-yl)oxy-2-methyl-N-(4-pyridylmethyl)benzamide, reference compound]
- IC50 (M-NFS-60 cells; Table 9): 0.636 µM
- IC50 (CSF1R [1]; Table 9): 0.926 µM

SMILES: COc1cc2nccc(Oc3cccc(CC(=O)Nc4ccncc4)c3)c2cc1OC [CC401, reference compound]
- IC50 (M-NFS-60 cells; Table 10): 7.51 µM
- IC50 (CSF1R [1]; Table 10): 3.85 µM

SMILES: COc1ccc2c(Oc3cccc(C(=O)NCc4cccc(F)c4)c3C)ccnc2c1 [compound 33]
- inhibition at 0.05 µM (CSF1R [2]): 78%
- inhibition at 0.05 µM (Kit): 4%
- inhibition at 0.05 µM (PDGFRB): 14%
- inhibition at 0.05 µM (FLT3): 16%
- inhibition at 0.05 µM (PDGFRA): 10%

SMILES: COc1cc2nccc(Oc3cccc(C(=O)N[C@H](C)c4ccccc4)c3)c2cc1OC [compound 24]
- inhibition at 0.05 µM (CSF1R [2]): 97%
- inhibition at 0.05 µM (Kit): 29%
- inhibition at 0.05 µM (PDGFRB): 34%
- inhibition at 0.05 µM (FLT3): 44%
- inhibition at 0.05 µM (PDGFRA): 24%

SMILES: COc1cc2nccc(Oc3cc(C(=O)N[C@H](C)C4CCCCC4)ccc3F)c2cc1OC [compound 93]
- inhibition at 0.05 µM (CSF1R [2]): 82%
- inhibition at 0.05 µM (Kit): 2%
- inhibition at 0.05 µM (PDGFRB): 24%
- inhibition at 0.05 µM (FLT3): 3%
- inhibition at 0.05 µM (PDGFRA): 23%
